Test results published in PMC5502055, “Phase II study of lanreotide autogel in Japanese patients with unresectable or metastatic well-differentiated neuroendocrine tumors” (Investigational New Drugs, 2017).

Key:
[1] = system: Japanese patients with grade (G) 1/G2 NET; experiment: Quality of life, EORTC QLQ-C30 (ver. 3.0); type: in vivo, human; settings: EORTC QLQ-C30, individual terms
Text: The primary endpoint was the clinical benefit rate (CBR) at 24 weeks after the first injection, which served to indicate and confirm the anti-tumor effects of lanreotide. The CBR was defined as the percentage of patients in the analysis set who achieved a complete response or partial response (PR) as the best overall response, or those who maintained stable disease (SD) over 24 weeks after the first injection by central review. Secondary efficacy endpoints were progression-free survival (PFS), overall survival (OS), objective response rate (ORR), and the percent change from baseline in the sum of the diameters of target lesion from baseline. […] Regarding tumor lesion imaging ≥4 weeks before the baseline, the investigators evaluated computed tomography (CT) or magnetic resonance imaging (MRI) data based on the RECIST (ver. 1.1). To evaluate anti-tumor effects after baseline, CT or MRI data were evaluated centrally by an independent third party based on the RECIST (ver. 1.1). During the study period, images of each patient were determined using the same method (CT or MRI), according to the standardized procedure at each site. […]
In the primary analysis, the CBR point estimate at 24 weeks after the first injection and an exact F distribution-based 95% confidence interval (CI) were calculated. […] The ORRs at 24, 48, and 60 weeks after the first injection were also calculated. […]

[2] = CLARINET study; cited from earlier work
Text: No interracial differences were observed regarding drug concentrations in the blood. This inter-study difference in the number of treatment required to achieve steady state is attributed to the associated with the low num ...

CC(C)[C@@H]1NC(=O)[C@H](CCCCN)NC(=O)[C@@H](Cc2c[nH]c3ccccc23)NC(=O)[C@H](Cc2ccc(O)cc2)NC(=O)[C@@H](NC(=O)[C@H](N)Cc2ccc3ccccc3c2)CSSC[C@@H](C(=O)N[C@H](C(N)=O)[C@@H](C)O)NC1=O [lanreotide]
QOL transformed scores versus baseline [1]: did not differ significantly
number of injections to steady state [2]: 6 injections
